Among the data in patent US7807704B2, “Bicyclic, nitrogen-containing compounds modulating CXCR4 and/or CCXCKR2” (Chemocentryx, Inc., priority 2006, dated 2010) are IC50 values, retold here.

The target of one experiment is T1, CXCR4 (Homo sapiens, UniProt P61073).
T1 construct: all endogenously expressing CXCR4; endogenous in cells; host or cells: CEM-Nkr, CCRF-CEM, Jurkat, Molt-4; IL-2 stimulated human lymphocytes
Kind of experiment: chemotaxis assay or 125I SDF-1α binding assay for CXCR4. As to conditions: first or only activity listed, read-out: CXCR4 activity (IC50 class). The protocol: CEM-Nkr, CCRF-CEM (ATCC #CCL-119), Jurkat (ATCC #TIB-152), Molt-4 (ATCC# CRL-1582), cell lines, all endogenously expressing CXCR4, were used in compound screening and subsequent assays. These cell lines were cultured as a suspension in RPMI-1640 medium supplemented with 2 mM L-glutamine, 1.5 g/L sodium bicarbonate, 4.5 g/L glucose, 10 mM HEPES, 1 mM sodium pyruvate, and 10% FBS. Cells were grown under 5% CO2/95% air, 100% humidity at 37° C. and subcultured twice weekly at 1:6 (cells were cultured at a density range of 1×10^5 to 2×10^6 cells/mL) and harvested at 1×10^6 cells/mL. • b) Isolated Human IL-2 Stimulated Lymphocytes
Cells were centrifuged and resuspended in assay buffer (20 mM HEPES pH 7.1, 140 mM NaCl, 1 mM CaCl2, 5 mM MgCl2, and with 0.2% bovine serum albumin) to a concentration of 4×10^6 cells/mL for cell lines. Binding assays were set up as follows. […] Then 0.1 mL of ^125I labeled SDF-1α (obtained from Perkin Elmer Life Sciences, Boston, Mass.) diluted in assay buffer to a final concentration of ˜50 pM, yielding ˜30,000 cpm per well, was added, the plates sealed and incubated for approximately 3 hours at 4° C. on a shaker platform. Reactions were aspirated onto GF/B glass filters pre-soaked in 0.3% polyethyleneimine (PEI) solution, on a vacuum cell harvester (Packard Instruments; Meriden, Conn.). Scintillation fluid (40 μl; Microscint 20, Packard Instruments) was added to each well, the plates were sealed and radioactivity measured in a Topcount scintillation counter (Packard Instruments). Control wells containing either diluent only (for total counts) or excess SDF1 a (1 μg/mL, for non-specific binding) were used to calculate the percent of total inhibition for compound. The computer program Prism from GraphPad, Inc. (San Diego, Calif.) was used to calculate IC50 values. IC50 values are those concentrations required to reduce the binding of radiolabeled SDF-1α to the receptor by 50%. (For further descriptions of ligand binding and other functional assays, see Dairaghi, et al., J. Biol. Chem. 274:21569-21574 (1999), Penfold, et al., Proc. Natl. Acad. Sci. USA. 96:9839-9844 (1999), and Dairaghi, et al., J. Biol. Chem. 272:28206-28209 (1997)).
Chemotaxis assays were performed using 5 μm pore polycarbonate, polyvinylpyrrolidone-coated filters in 96-well chemotaxis chambers (Neuroprobe; Gaithersburg, Md.) using chemotaxis buffer (Hank's balanced salt solution (HBSS) and 1% FBS). CXCR4 ligand (i.e., SDF1a, R&D Systems; Minneapolis, Minn.) are use to evaluate compound mediated inhibition of CXCR4 mediated migration. Other chemokines (i.e., TECK; R&D Systems; Minneapolis, Minn.) are used as specificity controls. The lower chamber was loaded with 29 μl of chemokine (i.e., 0.1 nM SDF1a); the top chamber contained 50,000 Jurkat cells or IL-2 lymphocytes in 20 μl. The chambers were incubated 2 hours at 37° C., and the number of cells in the lower chamber quantified either by direct cell counts in five high powered fields per well or by the CyQuant assay (Molecular Probes), a fluorescent dye method that measures nucleic acid content and microscopic observation.
To evaluate small organic molecules that prevent the CXCR4 from binding ligand, an assay was employed that detected radioactive ligand (i.e, SDF-1) binding to cells expressing CXCR4 on the cell surface (for example, CEM-Nkr cells). For compounds that inhibited binding, whether competitive or not, fewer radioactive counts are observed when compared to uninhibited controls.
Equal numbers of cells were added to each well in the plate. The cells were then incubated with radiolabeled […]. Unbound ligand was removed by washing the cells, and bound ligand was determined by quantifying radioactive counts. Cells that were incubated without any organic compound gave total counts; non-specific binding was determined by incubating the cells with unlabeled ligand and labeled ligand. Percent inhibition was determined by the equation: […]

The next experiment has as its target T2, CCXCKR2 (CXCR7) (Homo sapiens, UniProt P25106).
T2 construct: expressed in transfected cells; host or cells: MDA-MB-435S transfected with pcDNA3.1(+)-hRDC1, and/or MCF-7 (endogenous receptor)
Nature of the experiment: displacement of 125I SDF-1 from CCXCKR2 (CXCR7) on MCF-7 and/or MDA-MB-435S cells. Format: binding. The following applies: second activity listed in the cell; read-out: CXCR7 activity (IC50 class). The protocol:
The ability of the compounds to displace the labeled chemokine from the CCXCKR2 receptor sites at multiple concentrations was then determined with the screening process.
Reagents and Cells. ^125I-labeled SDF-1 was purchased from Perkin-Elmer Life Sciences, Inc. (Boston, Mass.). The MCF-7 (adenocarcinoma; mammary gland) cell line was obtained from the American Type Culture Collection (Manassas, Va.) or and was cultured in DMEM (Mediatech, Herndon, Va.) supplemented with 10% fetal bovine serum (FBS) (HyClone Logan, Utah) and bovine insulin (0.01 mg/mL) (Sigma, St. Louis, Mo.) at 37° C. in a humidified incubator at a 5% CO2/air mixture. CCXCKR2 transfected MDA-MB-435S were produced as described below. MDA-MB-435S human breast cancer line, was purchased from ATCC, and cultured in DMEM/10% FBS medium. The complete coding sequence of the gene encoding CCXCKR2 (a.k.a. CXCR7, hRDC1), was isolated from MCF-7 cells using μMACs mRNA isolation kit (Miltenyi Biotec, Auburn, Calif.). DNA contamination was removed by DNase digestion via RNeasy columns (Qiagen, Inc., Valencia, Calif.) and cDNA was generated using GeneAmp RNA PCR Core Kit (Applied Biosystems, Foster City, Calif.). PCR of cDNA samples was performed using Taq PCR Master Mix kit (Qiagen, Inc.) and hRDC1 primers harboring 5′ and 3′ NotI sites (hRDC1F 5′ […]-3′ (SEQ ID NO:11, hRDC1R 5′-[…]-3′) Not I digested PCR product was ligated into Not I digested pcDNA3.1 (+)(Invitrogen, Carlsbad, Calif.) and screened for orientation and sequence confirmed. Plasmid DNA was then isolated from overnight bacterial cultures by Maxiprep (Qiagen, Inc.). Plasmid DNA (10 μg) was added to MDA-MB-435s cells and cells were electroporated (0.22 kV, 960 uF) via Gene Pulser (Biorad laboratories, Hercules, Calif.). 48 hr post-electroporation, cells were transferred to selection medium (1000 ug/ml G418).
Binding Analysis. Target compounds were tested to determine their ability to bind with CCXCKR2 sites on MCF-7 and/or MDA-MB-435S cells. Efficiency-maximized radioligand binding using filtration protocols as described in Dairaghi D J, et al., HHV8-encoded vMIP-I selectively engages chemokine receptor CCR5. Agonist and antagonist profiles of viral chemokines., J. Biol. Chem. 1999 Jul. 30; 274(31): 21569-74 and Gosling J, et al., Cutting edge: identification of a novel chemokine receptor that binds dendritic cell-and T cell-active chemokines including ELC, SLC, and TECK., J. Immunol. 2000 Mar. 15; 164(6):2851-6 was used.
In these assays, MCF-7 and/or MDA-MB-435S cells were interrogated with the target compounds and the ability of these compounds to displace ^125I radiolabeled SDF-1 was assessed using the protocol described in Dairaghi and Gosling. The target compounds were added to the plate to the indicated concentration and were then incubated with cells followed by the addition of radiolabeled chemokine (^125I SDF-1) for 3 hr at 4° C. in the following binding medium (25 mM HEPES, 140 mM NaCl, 1 mM CaCl2, 5 mM MgCl2 and 0.2% bovine serum albumin, adjusted to pH 7.1). All assays were then incubated for 3 hrs at 4° C. with gentle agitation. Following incubation in all binding assays, reactions were aspirated onto PEI-treated GF/B glass filters (Packard) using a cell harvester (Packard) and washed twice (25 mM HEPES, 500 mM NaCl, 1 mM CaCl2, 5 mM MgCl2, adjusted to pH 7.1). Scintillant (MicroScint 10, Packard) was added to the wells, and the filters were counted in a Packard Topcount scintillation counter. Data were analyzed and plotted using Prism (GraphPad Prism version 3.0a for Macintosh, GraphPad Software, www.graphpad.com).

T2 sequence (P25106 whole entry): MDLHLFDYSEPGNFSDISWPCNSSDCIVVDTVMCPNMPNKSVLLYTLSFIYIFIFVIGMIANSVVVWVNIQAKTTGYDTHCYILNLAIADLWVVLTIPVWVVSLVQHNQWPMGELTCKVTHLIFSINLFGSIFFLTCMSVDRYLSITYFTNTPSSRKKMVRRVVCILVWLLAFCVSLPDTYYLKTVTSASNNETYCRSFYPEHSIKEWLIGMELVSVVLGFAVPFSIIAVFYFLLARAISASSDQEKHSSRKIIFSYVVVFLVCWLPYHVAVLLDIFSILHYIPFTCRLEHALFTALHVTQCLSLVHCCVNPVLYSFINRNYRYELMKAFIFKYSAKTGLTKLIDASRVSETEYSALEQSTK
T1 sequence (P61073 whole entry): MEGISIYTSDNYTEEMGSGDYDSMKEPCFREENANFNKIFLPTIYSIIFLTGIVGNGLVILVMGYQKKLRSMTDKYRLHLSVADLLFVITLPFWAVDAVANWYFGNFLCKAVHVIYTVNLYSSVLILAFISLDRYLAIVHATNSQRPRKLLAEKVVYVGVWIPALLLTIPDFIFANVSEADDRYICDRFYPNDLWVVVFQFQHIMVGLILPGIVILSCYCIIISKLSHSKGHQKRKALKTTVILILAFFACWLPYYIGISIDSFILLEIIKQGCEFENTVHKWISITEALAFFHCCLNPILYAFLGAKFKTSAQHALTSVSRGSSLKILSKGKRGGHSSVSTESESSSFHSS

On to `Cc1ccc(-c2ccc3ccn(CC(=O)NCCN(C)C4CCCCC4)c3c2)cc1` [No 24], for which the figures for the IC50 on CXCR4 and on CCXCKR2 (CXCR7) were less than 1 µM and 1 to 10 µM, respectively.

For `CN(CCNC(=O)Cn1ccc2ccc(-c3cccc(C#N)c3)cc21)C1CCCCC1` [No 28], the IC50 on CXCR4 and on CCXCKR2 (CXCR7) was 1 to 10 µM throughout.

As to `Cc1cc(-c2ccc3ccn(CC(=O)NCCN(C)C4CCCCC4)c3c2)ccc1F` [No 33], the IC50 at CXCR4 and at CCXCKR2 (CXCR7) was less than 1 µM each time.

For `CN(CCNC(=O)Cn1ccc2ccc(-c3ccc4c(ccn4C)c3)cc21)C1CCCCC1` [No 35], the concentration for half-maximal inhibition (IC50) on CXCR4 is less than 1 µM; at CCXCKR2 (CXCR7), 1 to 10 µM.

With `CCCCc1ccc(-c2ccc3ccn(CC(=O)NCCN(C)C4CCCCC4)c3c2)cc1` [No 31], the IC50 was less than 1 µM at CXCR4 and 1 to 10 µM at CCXCKR2 (CXCR7).

As for `COc1ccc(-c2ccc3ccn(CC(=O)NCCN(C)C4CCCCC4)c3c2)cc1` [No 26], the IC50 on CXCR4 is less than 1 µM; at CCXCKR2 (CXCR7), 1 to 10 µM.

Turning to `CN(CCNC(=O)Cn1ccc2ccc(-c3ccc(Cl)c(Cl)c3)cc21)C1CCCCC1` [No 27], the concentration for half-maximal inhibition (IC50) on CXCR4 and at CCXCKR2 (CXCR7) was less than 1 µM in each case.

With `CN(CCNC(=O)Cn1ccc2ccc(-c3ccc(F)cc3)cc21)C1CCCCC1` [No 23], the concentration for half-maximal inhibition (IC50) on CXCR4 and at CCXCKR2 (CXCR7) was less than 1 µM each time.

On to `Cc1cc(C)cc(-c2ccc3ccn(CC(=O)NCCN(C)C4CCCCC4)c3c2)c1` [No 32], for which the half-inhibitory concentration (IC50) on CXCR4 is less than 1 µM; at CCXCKR2 (CXCR7), 1 to 10 µM.
